Measured values reported in patent US20150337013A1, “NOVEL ANTIBACTERIAL AGENTS FOR THE TREATMENT OF GRAM POSITIVE INFECTIONS” (priority 2008, published 2015).
Where two headings read alike, the source gives them in different places.

Columns and labels:
[1] = test system: Staphylococcus aureus SAU.278, Daptomycin resistant mutant (D10); type: cell-based; settings: MHBc with 50 mg/L calcium, 18-20 hours at 37° C.
Method: (§1) Compounds according to Formula I were tested for antimicrobial activity against a panel of organisms. Aerobic organisms, Staphylococcus aureus, Enterococcus faecalis and E. faecium, were tested by broth microdilution according to Clinical and Laboratory Standards Institute (CLSI) document M7-A7 (Clinical and Laboratory Standards Institute. Methods for Dilution Antimicrobial Susceptibility Tests for Bacteria that Grow Aerobically; Approved Standard—Seventh Edition. CLSI document M7-A7 [ISBN 1-56238-587-9]. Clinical and Laboratory Standards Institute, 940 West Valley Road, Suite 1400, Wayne, Pa. 19087-1898 USA, 2006) with modifications as described below. Mueller Hinton Broth (MHBc) was supplemented with 50 mg/L calcium (equivalent to human physiological levels of calcium) and assay plates were incubated 18-20 hours at 37° C. with aeration (200 rpm).
(§2) In all cases the final concentration of dimethyl sulfoxide incubated with cells is less than or equal to 1%. For minimum inhibitory concentration (MIC) calculations, 2-fold dilutions of compounds were added to wells of a microtiter plate containing 5×10^5 bacteria in a final volume of 100 μL of media. Following incubation, (18-20 hours at 37° C. with aeration at 200 rpm) growth was confirmed visually by placing plates over a viewing apparatus (stand with a mirror underneath) and then the optical density (OD600) was measured using a SpectraMax 340PC^384 plate reader. Growth was defined as turbidity that could be detected with the naked eye or achieving minimum OD600of 0.1. MIC values (in μg/mL) were defined as the lowest concentration producing no visible turbidity.

[2] = test system: Enterococcus faecalis EFS.201 (ATCC 49452); type: cell-based
Method: as §1, §2

[3] = test system: Enterococcus faecium EFM.14 (ATCC 6569); type: cell-based
Method: as §1, §2

[4] = test system: Enterococcus faecalis EFS.312, Daptomycin resistant mutant (EFA); type: cell-based; settings: MHBc with 50 mg/L calcium, 18-20 hours at 37° C.
Method: as §1, §2

[5] = test system: Staphylococcus aureus SAU.42 (ATCC 29213); type: cell-based
Method: as §1, §2

[6] = test system: Enterococcus faecium EFM.384, Daptomycin resistant mutant (14-A); type: cell-based; settings: MHBc with 50 mg/L calcium, 18-20 hours at 37° C.
Method: as §1, §2

[7] = test system: Staphylococcus aureus SAU.399 (ATCC 43300), Methicillin and Oxacillin Resistant; type: cell-based; settings: ATCC 43300
Method: as §1, §2

[8] = MHBc with 50 mg/L calcium, 18-20 hours at 37° C.

## CCCCCCCCC(=O)N[C@@H](Cc1c[nH]c2ccccc12)C(=O)N[C@H](CC(N)=O)C(=O)N[C@@H](CC(=O)O)C(=O)N[C@@H]1C(=O)NCC(=O)N[C@@H](CCCN)C(=O)N[C@@H](CC(=O)O)C(=O)N[C@H](C)C(=O)N[C@@H](CC(=O)O)C(=O)NCC(=O)N[C@H](CO)C(=O)N[C@@H]([C@H](C)CC(=O)O)C(=O)N[C@@H](CC(=O)c2ccccc2N)C(=O)O[C@@H]1C [Compound 1]
[1]
  Sa278 MIC: >32 µg/mL
[2]; ATCC 49452
  Efs201 MIC: 32 µg/mL
[3]; ATCC 6569
  Efm14 MIC: 32 µg/mL
[4]
  Efs312 MIC: >32 µg/mL
[5]; ATCC 29213
  Sa42 MIC: 8 µg/mL
[6]
  Efm384 MIC: >32 µg/mL
[7]
  Sa399 MIC: 2 µg/mL

## CCCCCCCCCCCC(=O)N[C@@H](Cc1c[nH]c2ccccc12)C(=O)N[C@H](CC(N)=O)C(=O)N[C@@H](CC(=O)O)C(=O)N[C@@H]1C(=O)NCC(=O)N[C@@H](CCCN)C(=O)N[C@@H](CC(=O)O)C(=O)N[C@H](C)C(=O)N[C@@H](CC(=O)O)C(=O)NCC(=O)N[C@H](CO)C(=O)N[C@@H]([C@H](C)CC(=O)O)C(=O)N[C@@H](CC(=O)c2ccccc2N)C(=O)O[C@@H]1C [Compound 3]
[1]
  Sa278 MIC: 1 µg/mL
[2]; ATCC 49452
  Efs201 MIC: 0.5 µg/mL
[3]; ATCC 6569
  Efm14 MIC: 1 µg/mL
[4]
  Efs312 MIC: 32 µg/mL
[5]; ATCC 29213
  Sa42 MIC: 0.5 µg/mL
[6]
  Efm384 MIC: 4 µg/mL
[7]
  Sa399 MIC: 1 µg/mL

## CC(C)CCCCCCC(=O)N[C@@H](Cc1c[nH]c2ccccc12)C(=O)N[C@H](CC(N)=O)C(=O)N[C@@H](CC(=O)O)C(=O)N[C@@H]1C(=O)NCC(=O)N[C@@H](CCCN)C(=O)N[C@@H](CC(=O)O)C(=O)N[C@H](C)C(=O)N[C@@H](CC(=O)O)C(=O)NCC(=O)N[C@H](CO)C(=O)N[C@@H]([C@H](C)CC(=O)O)C(=O)N[C@@H](CC(=O)c2ccccc2N)C(=O)O[C@@H]1C [Compound 9]
[1]
  Sa278 MIC: 8 µg/mL
[2]; ATCC 49452
  Efs201 MIC: 4 µg/mL
[3]; ATCC 6569
  Efm14 MIC: 4 µg/mL
[4]
  Efs312 MIC: >32 µg/mL
[5]; ATCC 29213
  Sa42 MIC: 0.5 µg/mL
[6]
  Efm384 MIC: 32 µg/mL
[7]
  Sa399 MIC: 0.5 µg/mL

## CCCCCCCCCC(C)(C)C(=O)N[C@@H](Cc1c[nH]c2ccccc12)C(=O)N[C@H](CC(N)=O)C(=O)N[C@@H](CC(=O)O)C(=O)N[C@@H]1C(=O)NCC(=O)N[C@@H](CCCN)C(=O)N[C@@H](CC(=O)O)C(=O)N[C@H](C)C(=O)N[C@@H](CC(=O)O)C(=O)NCC(=O)N[C@H](CO)C(=O)N[C@@H]([C@H](C)CC(=O)O)C(=O)N[C@@H](CC(=O)c2ccccc2N)C(=O)O[C@@H]1C [Compound 12]
[1]
  Sa278 MIC: 8 µg/mL
[2]; ATCC 49452
  Efs201 MIC: 16 µg/mL
[3]; ATCC 6569
  Efm14 MIC: 8 µg/mL
[4]
  Efs312 MIC: 32 µg/mL
[5]; ATCC 29213
  Sa42 MIC: 4 µg/mL
[6]
  Efm384 MIC: >32 µg/mL
[7]
  Sa399 MIC: 2 µg/mL

## CCCCCCCC(C)C(=O)N[C@@H](Cc1c[nH]c2ccccc12)C(=O)N[C@H](CC(N)=O)C(=O)N[C@@H](CC(=O)O)C(=O)N[C@@H]1C(=O)NCC(=O)N[C@@H](CCCN)C(=O)N[C@@H](CC(=O)O)C(=O)N[C@H](C)C(=O)N[C@@H](CC(=O)O)C(=O)NCC(=O)N[C@H](CO)C(=O)N[C@@H]([C@H](C)CC(=O)O)C(=O)N[C@@H](CC(=O)c2ccccc2N)C(=O)O[C@@H]1C (stereo partly drawn) [Compound 13]
[1]
  Sa278 MIC: 32 µg/mL
[2]; ATCC 49452
  Efs201 MIC: 16 µg/mL
[3]; ATCC 6569
  Efm14 MIC: 16 µg/mL
[4]
  Efs312 MIC: >32 µg/mL
[5]; ATCC 29213
  Sa42 MIC: 2 µg/mL
[6]
  Efm384 MIC: >32 µg/mL
[7]
  Sa399 MIC: 1 µg/mL

## CCCCCC1CCC([C@H]2CC[C@H](C(=O)N[C@@H](Cc3c[nH]c4ccccc34)C(=O)N[C@H](CC(N)=O)C(=O)N[C@@H](CC(=O)O)C(=O)N[C@@H]3C(=O)NCC(=O)N[C@@H](CCCN)C(=O)N[C@@H](CC(=O)O)C(=O)N[C@H](C)C(=O)N[C@@H](CC(=O)O)C(=O)NCC(=O)N[C@H](CO)C(=O)N[C@@H]([C@H](C)CC(=O)O)C(=O)N[C@@H](CC(=O)c4ccccc4N)C(=O)O[C@@H]3C)CC2)CC1 (stereo partly drawn) [Compound 20]
[1]
  Sa278 MIC: 8 µg/mL
[2]; ATCC 49452
  Efs201 MIC: 0.5 µg/mL
[4]
  Efs312 MIC: 4 µg/mL
[5]; ATCC 29213
  Sa42 MIC: 0.5 µg/mL
[7]
  Sa399 MIC: 2 µg/mL

## CC(C)C1CCC(CCCC(=O)N[C@@H](Cc2c[nH]c3ccccc23)C(=O)N[C@H](CC(N)=O)C(=O)N[C@@H](CC(=O)O)C(=O)N[C@@H]2C(=O)NCC(=O)N[C@@H](CCCN)C(=O)N[C@@H](CC(=O)O)C(=O)N[C@H](C)C(=O)N[C@@H](CC(=O)O)C(=O)NCC(=O)N[C@H](CO)C(=O)N[C@@H]([C@H](C)CC(=O)O)C(=O)N[C@@H](CC(=O)c3ccccc3N)C(=O)O[C@@H]2C)CC1 (stereo partly drawn) [Compound 21]
[1]
  Sa278 MIC: 2 µg/mL
[2]; ATCC 49452
  Efs201 MIC: 0.25 µg/mL
[4]
  Efs312 MIC: 32 µg/mL
[5]; ATCC 29213
  Sa42 MIC: 0.063 µg/mL
[7]
  Sa399 MIC: 1 µg/mL

## CCCCCc1ccc(C(=O)N[C@@H](Cc2c[nH]c3ccccc23)C(=O)N[C@H](CC(N)=O)C(=O)N[C@@H](CC(=O)O)C(=O)N[C@@H]2C(=O)NCC(=O)N[C@@H](CCCN)C(=O)N[C@@H](CC(=O)O)C(=O)N[C@H](C)C(=O)N[C@@H](CC(=O)O)C(=O)NCC(=O)N[C@H](CO)C(=O)N[C@@H]([C@H](C)CC(=O)O)C(=O)N[C@@H](CC(=O)c3ccccc3N)C(=O)O[C@@H]2C)cc1 [Compound 31]
[1]
  Sa278 MIC: >32 µg/mL
[2]; ATCC 49452
  Efs201 MIC: 16 µg/mL
[3]; ATCC 6569
  Efm14 MIC: 16 µg/mL
[4]
  Efs312 MIC: >32 µg/mL
[5]; ATCC 29213
  Sa42 MIC: 4 µg/mL
[6]
  Efm384 MIC: >32 µg/mL
[7]
  Sa399 MIC: 4 µg/mL

## CCCCCCCCCOc1ccc(C(=O)N[C@@H](Cc2c[nH]c3ccccc23)C(=O)N[C@H](CC(N)=O)C(=O)N[C@@H](CC(=O)O)C(=O)N[C@@H]2C(=O)NCC(=O)N[C@@H](CCCN)C(=O)N[C@@H](CC(=O)O)C(=O)N[C@H](C)C(=O)N[C@@H](CC(=O)O)C(=O)NCC(=O)N[C@H](CO)C(=O)N[C@@H]([C@H](C)CC(=O)O)C(=O)N[C@@H](CC(=O)c3ccccc3N)C(=O)O[C@@H]2C)cc1 [Compound 37]
Clostridium difficile
  C. diff MIC90: 1 µg/mL
[1]
  Sa278 MIC: 0.25 µg/mL
[2]; [8]
  Efs201 MIC: 0.5 µg/mL
[3]; [8]
  Efm14 MIC: 0.5 µg/mL
[4]
  Efs312 MIC: 2 µg/mL
[5]; [8]
  Sa42 MIC: 0.25 µg/mL
[6]
  Efm384 MIC: 2 µg/mL

## C[C@H](CC(=O)O)[C@@H]1NC(=O)[C@@H](CO)NC(=O)CNC(=O)[C@H](CC(=O)O)NC(=O)[C@@H](C)NC(=O)[C@H](CC(=O)O)NC(=O)[C@H](CCCN)NC(=O)CNC(=O)[C@@H](NC(=O)[C@H](CC(=O)O)NC(=O)[C@@H](CC(N)=O)NC(=O)[C@H](Cc2c[nH]c3ccccc23)NC(=O)CCCCCCc2ccccc2)[C@@H](C)OC(=O)[C@H](CC(=O)c2ccccc2N)NC1=O [Compound 47]
Clostridium difficile
  C. diff MIC90: 8 µg/mL
[1]
  Sa278 MIC: >32 µg/mL
[3]; ATCC 6569
  Efm14 MIC: >32 µg/mL
[4]
  Efs312 MIC: >32 µg/mL
[6]
  Efm384 MIC: >32 µg/mL
[7]
  Sa399 MIC: 16 µg/mL

## C[C@H](CC(=O)O)[C@@H]1NC(=O)[C@@H](CO)NC(=O)CNC(=O)[C@H](CC(=O)O)NC(=O)[C@@H](C)NC(=O)[C@H](CC(=O)O)NC(=O)[C@H](CCCN)NC(=O)CNC(=O)[C@@H](NC(=O)[C@H](CC(=O)O)NC(=O)[C@@H](CC(N)=O)NC(=O)[C@H](Cc2c[nH]c3ccccc23)NC(=O)c2ccc(-c3ccc(Cl)cc3)cc2)[C@@H](C)OC(=O)[C@H](CC(=O)c2ccccc2N)NC1=O [Compound 68]
Clostridium difficile
  C. diff MIC90: 16 µg/mL
[1]
  Sa278 MIC: 32 µg/mL
[2]; ATCC 49452
  Efs201 MIC: 16 µg/mL
[3]; ATCC 6569
  Efm14 MIC: 16 µg/mL
[4]
  Efs312 MIC: >32 µg/mL
[5]; ATCC 29213
  Sa42 MIC: 4 µg/mL
[6]
  Efm384 MIC: >32 µg/mL
